Measured values published in US20210293825A1, “METHODS FOR PRECISION THERAPEUTIC TARGETING OF HUMAN CANCER CELL MOTILITY AND KITS THEREOF” (UNITED STATES GOVERNMENT AS REPRESENTED BY THE DEPARTMENT …, priority 2018, published 2021).

What was measured:
[1] = test system: human cord blood CD34+ stem cells; test: Hematopoietic stem cell colony formation assay; assay type: cell-based; details: colonies at 14 days
Source text: FIG. 1a is a schematic flow of probe synthesis and development strategy. […] Values are mean±SEM of a single experiment in replicates of N=4, with similar findings in multiple separate experiments (also N=4). […] Values are mean±SEM of a single experiment in replicates of N=24, with similar findings in a separate experiment (also N=24). *Denotes Student's t test P value <0.05, compared to controls. […] Values are mean±SEM from N>2 separate experiments, each in replicates of N=3. […] Values are the mean±SD number of total, CFU-GM, CFU-GEMM or BFU-E colonies at 14 days after treatment with KBU2046, from a single experiment in replicates of N=2. […] Values are the mean±SD of a single experiment, with similar results seen in a separate experiment, both in replicates of N=2.
Hematopoietic Stem Cell Colony Formation Assay. Fourteen-day colony formation assays were conducted as described (Bergan, R. et al., Blood 88, 731-41 (1996)), using human cord blood CD34+ stem cells (AllCells Inc.), using MethoCultExpress™ colony growth media (StemCell Technologies Inc.), performed in replicates of N=2.

[2] = Pharmacokinetics after oral gavage or intravenous injection; assay type: in vivo, CD1 mice; details: after a single oral dose
Protocol: Cohorts of N=12 athymic mice bearing human PCa PC3-M cell orthotopic implants (a), or of N=5 non-tumor bearing athymic mice (b), were treated with KBU2046 incorporated into chow, and resultant lung metastasis (a) or plasma KBU2046 concentration (b) measured. Values are the mean±SEM. The relationship between dose and metastasis was evaluated by two-sided ANOVA (a). FIG. 2c a comprehensive characterization of KBU2046 pharmacokinetics. CD1 mice were dosed with 100 mg KBU2046/kg via oral gavage or intravenous injection (iv), and blood collected at the indicated time points (data from mice dosed at 25 mg/kg are in FIG. 12, and corroborate 100 mg/kg findings). For each route and time point, N=3 mice were sampled. Individual data points are the resultant plasma concentrations from individual mice, and are the mean of N=2 measurements. The dotted horizontal line denotes a concentration of 24 nM, which was the concentration of KBU2046 measured in the blood of mice whose metastasis were suppressed by 92% (a-b). […]
KBU2046 Quantification and Pharmacokinetics. […]
Plasma KBU2046 concentrations were measured in duplicate by liquid chromatography-tandem mass spectrometry after sample preparation by solid-phase extraction. […] The mass-to-charge ratios of the precursor-to-product ion reactions monitored were 243.5→125.1 for KBU2046 and 257.0→165.0 for the internal standard. […]

## O=C1c2ccccc2OCC1c1ccc(F)cc1 (racemic) [KBU2046, (±)-3(4-fluorophenyl)chroman-4-one]
[1]
  toxicity to human bone marrow stem cells: not toxic
[2]
  maintenance of plasma concentrations >24 nM: 9.3 h
